From patent US9687470B2, “Compounds for use in the treatment of filariasis” (RHEINISCHE FRIEDRICH-WILHELMS UNIVERSITAET BONN, priority 2011, dated 2017)
“Also recorded” adds a separate entry of the source.

Assays:
[1] = Stability of corallopyronin A injection samples in PBS by analytical HPLC; format: physicochemical; settings: samples in PBS used for injection; days 1, 14 and 28; compared with purified corallopyronin A
Procedure: To verify that the corallopyronin A was stable over the whole period of the in vivo experiment, aliquots of the samples in phosphate buffered saline (PBS, PAA Laboratories, Colbe, Germany) which were used for injection were analyzed by High performance liquid chromatography (HPLC). The conditions for the analytical HPLC runs were the same as above. […] Five weeks post infection worms were recovered from the pleural cavity by lavage with PBS. The worms were sorted by sex with the aid of a dissecting microscope and their lengths measured. 10 female worms from each treatment were individually frozen for DNA extraction.

[2] = tested on: Wolbachia of A. albopictus; assay: Susceptibility of Wolbachia to corallopyronin A in vitro (infected C6/36 cells, qPCR 16S-rRNA/actin ratio); format: cell-based
Procedure: The activity of corallopyronin A against Wolbachia was tested in vitro using the Aedes albopictus C6/36 cell line infected with Wolbachia of A. albopictus.
The susceptibility of Wolbachia towards corallopyronin A was investigated as described previously (Henrichfreise, Schiefer et al., “Functional conservation of the lipid II biosynthesis pathway in the cell wall-less bacteria Chlamydia and Wolbachia: why is lipid II needed?”, (2009) Mol Microbiol, 73 (5): 913-923) with some modifications.
The A. albopictus cell line C6/36 (European Collection of Cell Cultures) infected with Wolbachia from A. albopictus B containing supernatant as described in Turner et al., J Immunol 2006, 177(2): 1240-1249 were cultured in 96-well plates by seeding each well with 1×10^4 insect cells. The cells were incubated for 9 days at 26° C. in L15 Leibovitz's medium (Invitrogen, Darmstadt, Germany) supplemented with 5% fetal calf serum (FCS, Invitrogen), 1% nonessential amino acids (PAA Laboratories, Colbe, Germany), 0.59 mg/ml tryptose phosphate broth (Sigma, Munich, Germany) and 0.01% penicillin/streptomycin (PAA Laboratories) with and without 4 μg/ml doxycycline (Merck, Darmstadt, Germany) and 1, 0.1 and 0.01 μg/ml corallopyronin A in duplicate. The medium was replaced every third day. The treated cells were harvested on day 9.
Extraction of genomic DNA was performed with the QIAamp Kit (Qiagen, Hilden, Germany) according to the instructions of the manufacturer. Depletion of Wolbachia was monitored by quantitative real-time PCR (qPCR) using the primers 16S-rRNA-Fw (5′-[…]-3′, SEQ ID NO: 1) and 16S-rRNA-Rev (5′-GTGTGGCTGATCATCCTCT-3′, SEQ ID NO: 2) which target the 16S-rRNA gene (GenBank Accession #: X61767) of Wolbachia and Ac-Fw (5′-[…]-3′, SEQ ID NO: 3) and Ac-Rev (5′-[…]-3′, SEQ ID NO: 4) for actin (GenBank Accession #: DQ657949) of the C6/36 cells.
The PCR reaction mixtures were 20 μl of 1× HotStar Taq Buffer (Qiagen), 3 mM MgCl2, 0.2 mM dNTPs (PeqLab, Erlangen, Germany), 0.5 μM forward and reverse 16S-rRNA primers or 0.3 μM forward and reverse actin primers, 0.2 μl of a 1:1000 dilution in DMSO of SybrGreen (Roche, Mannheim, Germany), 0.5 units HotStar Taq polymerase and 2 μl of gDNA. […] Specific amplification was confirmed by a melting curve analysis from 72° C. to 95° C. with fluorescence acquired on the FAM channel at 1° C. intervals. The copy number of each gene was calculated using a plasmid containing the appropriate insert as standard curve. […]
Normal distribution of the data was calculated using the D′Agostino & Pearson omnibus normality test. […] Alls statistics were calculated using GraphPad Prism version 5.00 for Windows, GraphPad Software, San Diego Calif. […]

C6/36 cells = format: cell-based, Aedes albopictus
Wolbachia = assay: Susceptibility of Wolbachia in vivo: depletion from L. sigmodontis worms in infected BALB/c mice (qPCR ftsZ/actin); parameters: species or system Wolbachia of Litomosoides sigmodontis in BALB/c mice
Procedure: The effect of corallopyronin A in vivo was determined in a rodent model of BALB/c mice infected with the rodent filarial worm Litomosoides sigmodontis host to Wolbachia. L. sigmodontis a well established model for human filarial worms. A key advantage of this model is the fact that administration of anti-wolbachial drugs concomitant with infection by the L. sigmodontis larvae allows for a rapid assessment of activity on the day the worms are retrieved from the infected animals.
The L. sigmodontis life cycle was maintained at the Institute for Medical Microbiology, Immunology and Parasitology as described by Al-Qaoud KM et al. (1997) “Infection of BALB/c mice with the filarial nematode Litomosoides sigmodontis: role of CD4+T cells in controlling larval development”, Infect Immun 65: 2457-2461.
Female BALB/c mice aged 6-8 weeks were purchased from Charles River, Sulzfeld, Germany. […]
To control for degradation over time, an aliquot of corallopyronin A was frozen for HPLC analysis on days 1, 14 and 28. […] The worms were sorted by sex with the aid of a dissecting microscope and their lengths measured. […]
Depletion of Wolbachia was monitored by qPCR using the primers Ls-FtsZ-Fw (5′-[…]-3′, SEQ ID NO: 5) and Ls-FtsZ-Rev (5′-TTGCAATTACTGGTGCTGC-3′, SEQ ID NO: 6) and hybridization probe (5′-6-FAM-[…]-TAMRA-3′, SEQ ID NO: 7) which target ftsZ (GenBank Accession #: AJ010271), a single copy number gene of Wolbachia. […] Cycling conditions were: 95° C. for 15 minutes followed by 35 cycles of 94° C. for 4 seconds, 58° C. for 30 seconds and 72° C. for 15 seconds with fluorescence acquired on the FAM channel as described in Arumugam S et al., Int J Parasitol 2008, 38: 981-987.
To normalize the ftsZ content of worms of different lengths, the L. sigmodontis actin gene (GenBank Accession No.: GU971367) was quantified by qPCR using the primers Ac-Fw (5′-[…]-3′, SEQ ID NO: 8) and Ac-Rev (5′-[…]-3′, SEQ ID NO: 9). […]

Litomosoides sigmodontis = assay: Worm length (larval development) of L. sigmodontis recovered from treated BALB/c mice; format: in vivo, Litomosoides sigmodontis in BALB/c mice; settings: worms recovered five weeks post infection
Procedure: The effect of corallopyronin A in vivo was determined in a rodent model of BALB/c mice infected with the rodent filarial worm Litomosoides sigmodontis host to Wolbachia. L. sigmodontis a well established model for human filarial worms. A key advantage of this model is the fact that administration of anti-wolbachial drugs concomitant with infection by the L. sigmodontis larvae allows for a rapid assessment of activity on the day the worms are retrieved from the infected animals. […] The L. sigmodontis life cycle was maintained at the Institute for Medical Microbiology, Immunology and Parasitology as described by Al-Qaoud KM et al. (1997) “Infection of BALB/c mice with the filarial nematode Litomosoides sigmodontis: role of CD4+T cells in controlling larval development”, Infect Immun 65: 2457-2461. Female BALB/c mice aged 6-8 weeks were purchased from Charles River, Sulzfeld, Germany. […] The worms were sorted by sex with the aid of a dissecting microscope and their lengths measured. […] Normal distribution of the data was calculated using the D′Agostino & Pearson omnibus normality test. […] Alls statistics were calculated using GraphPad Prism version 5.00 for Windows, GraphPad Software, San Diego Calif. […]

[3] = Tolerability in infected BALB/c mice; format: in vivo; settings: 35 mg/kg/day dosage
Procedure: Female BALB/c mice aged 6-8 weeks were purchased from Charles River, Sulzfeld, Germany. The mice were infected with L. sigmodontis larvae as described in by Al-Qaoud K M et al. Beginning the day after the infection, the mice were untreated or given intra-peritoneal injections of: 10% dimethyl sulfoxide (DMSO) (vehicle control), 50 mg/kg/day doxycycline (Merck), or 35 mg/kg/day of corallopyronin A. Doxycycline was given for 14 days while corallopyronin A and 10% DMSO (vehicle control) were given for 28 days. All substances were diluted in phosphate buffered saline (PBS, PAA Laboratories).

SMILES	degradation of corallopyronin A (HPLC) [1]	depletion of Wolbachia relative to doxycycline ([2]; 1 μg/ml versus 4 μg/ml doxycycline, nine days, C6/36 cell line)	depletion of Wolbachia ([2]; beginning at 0.1 μg/ml, nine days of treatment, C6/36 cell line) [%]	anti-wolbachial effect in vitro ([2]; in vitro tests, summary statement)	dose dependence of Wolbachia depletion ([2]; nine day assay, 1, 0.1 and 0.01 μg/ml)	toxicity to cells / cell growth (C6/36 cells)	Wolbachia depletion from worms relative to doxycycline (Wolbachia; 35 mg/kg/day for 28 days versus doxycycline 50 mg/kg/day for 14 days)	depletion of the Wolbachia compared to the control (Wolbachia; BALB/c mice infected with L. sigmodontis, 35 mg/kg/day intra-peritoneal for 28 days) [%]	anti-wolbachial effect in vivo (Wolbachia; in vivo tests, summary statement)	worm length (Litomosoides sigmodontis; 35 mg/kg/day intra-peritoneal for 28 days, control worms 38 mm) [mm]	tolerability in mice [3]	visually apparent toxic effects in mice [3]	worm length (median) (Litomosoides sigmodontis; doxycycline 50 mg/kg/day intra-peritoneal for 14 days, untreated 38 mm, vehicle 34 mm) [mm]
C/C=C/C/C=C(/C)[C@H](O)CC/C(C)=C/C=C(\C)C(=O)c1c(O)cc([C@H](C)CC/C=C/NC(=O)OC)oc1=O [corallopyronin A, methyl N-[(1E)-5-[4-hydroxy-3-[(2E,4E,9Z,12E)-8-hydroxy-2,5,9-trimethyltetradeca-2,4,9,12-tetraenoyl]-2-oxo-2H-pyran-6-yl]hex-1-en-1-yl]carbamate]	no degradation	levels equivalent to 4 μg/ml of the tetracycline doxycycline; also recorded: levels equivalent to those of 4 μg/ml doxycycline	> 50	potent anti-wolbachial effect	dose dependent manner	without apparent cytotoxic effects	levels below those seen for doxycycline	> 99	potent anti-wolbachial effect	9.0	well tolerated	no toxic effects were visually apparent	
C[C@H]1c2cccc(O)c2C(=O)C2=C(O)[C@]3(O)C(=O)C(C(N)=O)=C(O)[C@@H](N(C)C)[C@@H]3[C@@H](O)[C@@H]21 [doxycycline, reference compound]													8.3
